One series relates to multiple sclerosis (EAE). The experiment in a line: Multiple sclerosis (EAE) animal model, neural function score. It counts as in vivo. How it is done: Female Lewis rats weighted between 280 to 300 g were used in the multiple sclerosis (MS, also called Encephalomyelitis; EAE) model (Boulerne et al, J Neurosci. 2002; 22:123-32, 2004). The animals were anesthetized with 2.5% isoflurane, and 50 μL of Complete Freund's Adjuvant (Sigma) containing 1 mg inactivated Mycobacterium tuberculosis H37Ra and 50 μg guinea pig myelin basic protein (MBP) was subcutaneous injected from the posterior paw for 100% immunizing In the control group, the rats were injected with Freund's complete adjuvant containing inactivated Mycobacterium tuberculosis H37Ra and without guinea pig myelin basic protein. The ill was observed on day 11 to 12 after immunization, and reached the peak on day 14 to 15.
The neural function was assessed on day 15. The scores represents: 0: no clinical symptom; 1: function loss in the tail; 2: partial paralysis in the posterior limbs; 3: complete paralysis in the posterior limbs; 4: paralysis in the four limbs; 5: complete paralysis in the whole body; 6: death (Liu et al. J Neuroimmunol. 2003; 139:27-35, 1998).
The rats were divided into four groups, and each group containing four animals: • Control group: Rats were subcutaneous injected from the posterior paw with Freund's complete adjuvant containing inactivated Mycobacterium tuberculosis H37Ra and without guinea pig myelin basic protein. 20 μL of normal saline was administered through the intrathecal catheter twice a day for five days from day 7. • Multiple sclerosis group: Rats were subcutaneous injected from the posterior paw with Freund's complete adjuvant containing inactivated Mycobacterium tuberculosis H37Ra and guinea pig myelin basic protein. 20 μL of normal saline was administered through the intrathecal catheter twice a day for five days from day 7. • Multiple sclerosis with treatment group: Rats were subcutaneous injected from the posterior paw with Freund's complete adjuvant containing inactivated Mycobacterium tuberculosis H37Ra and guinea pig myelin basic protein. […]

For series [1], the system named is neointimal proliferation of the carotid artery. The experiment in a line: Atherosclerosis model in rat, balloon-induced angioplasty of carotid artery. It counts as in vivo. How it is done: The operation was performed according to the references of Berger et al (Atherosclerosis 175:229-234, 2004) and Chen et al (Naunyn Schmiedebergs Arch Pharmacol 368:127-133, 2003). The animals were anesthetized with 2.5% isoflurane (mixed air and oxygen of 1:1) with a 2F probe balloon catheter. The catheter was pre-filled with saline solution and positioned from the external carotid artery of the right neck into the right common carotid artery. When the catheter entered about 1.5 cm of the right common carotid artery, the balloon was inflated and rubbed forward and backward three times. Then, the catheter was removed and the external carotid artery was ligated and the incision was sutured. […] The samples were observed under an optical microscopy and photoed. The thickness of neointimal proliferation was determined. The right side of each rat was taken as the experiment group and the left side was as the control group.
In the experiment group, the compound represented by formula 3 was administered.

For the next series, the system named is β-actin. The experiment in a line: Protein expression of β-actin (internal control) in LPS-stimulated RAW 264.7 macrophages. It counts as cell-based, mouse. The following applies: 50 μM compound. As for the experimental part: (§1) A mouse macrophage cell line, RAW 264.7, purchased from the American Type Culture Collection (ATCC , No TIB-71) was chosen in the in vitro model. The cells were cultured in DMEM (Dulcbecco/s Modified Eagle medium) containing 10% fetal bovine serum (FBS) and penicillin G (100 U/mL) and streptomycin (100 μg/mL) at 37° C. and 5% CO2. When reaching 80% confluence, the cells were subcultured with trypsin. The cells were subjected to an anti-inflammation assay after subcultured for 36 hours. 3×10^6 RAW264.7 cells were cultured in a 10-cm culture dish and administered with lipopolysaccharide (LPS, 0.01 μg/mL; Sigma L2654). After 16 hours, the cells were collected. […]
(§2) The collected RAW264.7 cells were dissolved with 200 μL of 4° C. lysis buffer (50 mM Tris [pH 7.5], 150 mM NaCl, 1% TritonX-100, 0.1 mM EDTA, 0.1 mM EGTA, 10 μg PMSF, 1 μg/mL aprotinin, 20 mM NaF, and 0.2 mM Na3VO4). […] The supernatant was assayed with Bio-Rad DC protein assay kit (Bio-Rad Laboratories, Hercules, Calif., USA) and the absorbance was read with an ELISA reader (Thermo Electron Corporation, USA) for estimating the protein contents. […] After washed with TTBS for three times, an enhanced chemiluminescence detection kit was used for reading with the PVDF membrane and exposed with an X-ray film (Kodak X-OMAT LS, Kodak, Rochester, N.Y., USA) for detecting the protein expression. […]

Series [2] concerns inducible nitric oxide synthase. The experiment in a line: Protein expression of inducible nitric oxide synthase in LPS-stimulated RAW 264.7 macrophages (Western blot). It counts as cell-based, mouse. How it is done: as §1, §2
Another series concerns cyclooxygenase-2. The experiment in a line: Protein expression of cyclooxygenase-2 in LPS-stimulated RAW 264.7 macrophages (Western blot). It counts as cell-based, mouse. How it is done:
as §1, §2
On the technique in general: Immunoblotting shows a protein as a band on a membrane.

Series [3] deals with thermal hyperalgesia after sciatic nerve chronic constriction injury. The experiment in a line: Neuropathic pain model, sciatic nerve chronic constriction injury, thermal hyperalgesia. It counts as in vivo, rat. How it is done: The operation was performed according to the description of Wen et al, Brain Res 963:1-7, 2003. The dura mater of male Wistar rats was opened near the foramen magnum and planted with an 8.5-cm PE tube (outer diameter: 0.014 inches, inner diameter: 0.008 inches). The drugs worked near the lumbar, and the end of injection was fixed on the head. Animals those had deficient in motor or blood in the intrathecal catheter were abandoned.
The model was established similar to the sciatic nerve chronic constriction injury (CCI) established by Bennett and Xie (Pain 33:87-107, 1988). 4-O cat cut line was used to tie four nodes on the sciatic nerve. After one week, the behavior of thermal hyperalgesia was stimulated. The behavior of thermal hyperalgesia was assayed similar to the method established by Hargreaves et al (Pain 32:77-88, 1988) and recorded with an analgesiometer (IITC Inc., Woodland Hills, Calif., USA) for assessing the effect of the compound represented by formula 3 on neuropathic pain relief.
MPE(%)=(latency after drug administered−basal latency)/(30 seconds−basal latency)×100%
If a higher MPE was obtained, the effect of pain relief was better, and the maximum value of MPE was 100.

As for `CC(=O)CCS(=O)(=O)CCO` [formula 3], the “neural function score (0-6), multiple sclerosis with treatment group” value in the series with multiple sclerosis (EAE) (10 μg/20 μL intrathecal twice a day for five days from day 7, assessed on day 15, female Lewis rats) is 0.5±0.3. Moreover, the “progress of multiple sclerosis” value in the series with multiple sclerosis (EAE) (administered through the intrathecal catheter) was “significantly represses the progress of multiple sclerosis”. For the same compound, the “neural function score (0-6), normal rats with treatment group” value in the series with multiple sclerosis (EAE) (normal rats, 10 μg/20 μL intrathecal twice a day for five days from day 7) is recorded as 0. Further, in series [1] (administered once a day), the “neointimal proliferation (preliminary result)” value was “significantly improved”. In addition, in series [1] (hypodermic injection 3 mg/kg a day from day 10 to 24 after operation), the “atherosclerosis, numeralized intima/media” value is “improves atherosclerosis significantly”. Moreover, the “neointimal proliferation stimulated by balloon-induced angioplasty” value in series [1] (hypodermic injection 3 mg/kg a day from day 10 to 24 after operation, slices on day 24) is “improves the neointimal proliferation”. Besides, the “effect on protein expression of β-actin” value in the series with β-actin is “inhibits the protein expression of β-actin”. Besides, in series [2] (10 to 30 μM compound, LPS 0.01 μg/mL), the “inhibition of inducible nitric oxide synthase of macrophages” value is “significantly inhibits”. In addition, the IC50 in series [2] (RAW 264.7 macrophages stimulated by LPS 0.01 μg/mL, 16 hours, protein expression, read-out: 50% inhibition concentration (IC50), inducible nitric oxide synthase) came to 3.64 ± 0.28 µM; in the series on cyclooxygenase-2 (RAW 264.7 macrophages stimulated by LPS 0.01 μg/mL, 16 hours, protein expression), 32.1 ± 8.1 µM. Moreover, the “inhibition of cyclooxygenase-2 of macrophages” value in the series on cyclooxygenase-2 (5 to 30 μM compound, LPS 0.01 μg/mL) is listed as “significantly inhibits”. In series [3] (intrathecal injection, CCI rats, paw withdrawal latency), the “50% effective dose (ED50) calculated from MPE” value was 0.75 ± 0.05 µg. The thermal hyperalgesia inhibition entry in series [3] (intrathecal injections of 0.1, 0.5, 1, or 5 μg) is “significant effect on thermal hyperalgesia inhibition”.

The values are drawn from patent US8722745B2, “Sulfur-containing compound, method of preparation and pharmaceutical uses thereof” (National Sun Yat-Sen University, priority 2007, dated 2014).
